Data from patent publication EP4549575A1 (priority 2023, dated 2025).
“Also recorded” adds a separate entry of the source. Square brackets hold non-standard residues; d marks the D form. Ends that are not written are not given here. Peptide text beside a SMILES is read from it. * marks the point of attachment. hCys = N[C@@H](CCS)C(=O)O; βAla = NCCC(=O)O; CF3 = FC(F)(F)*

Columns and labels:
P. infestans = format: cell-based; details: for PPI (%) ± Std. Dev. / PPI: 200 µM, P. infestans mycelium; for PPI (%) ± Std. Dev.: peptidomimetics; for PPI (%) micelio: Ala-scan of Ac-LP32; for PPI (%) micelio / PPI (%) mycelium: P. infestans mycelium in vitro; for PPI (%) mycelium: Ala-scan of Ac-LP20 and CP20-Met-Ala; for PPI: solid medium, linear vs cyclic peptides (Figure 8)
pronase [1] = assay: pronase (commercially available mixture of proteases isolated from the extracellular fluid of Streptomyces griseus, 2.5 µg/mg) in buffer solution (50 mM Tris, 10 mM CaCl2, 150 mM NaCl, 0.05 % (w/v) Br); details: 37°C, up to 2 h
pronase [2] = assay: Stability towards proteolysis (pronase, LC-MS); format: in vitro ADME, Streptomyces griseus; details: peptide 200 µM, protease 5 µg/mL, 37°C, pH 7.5; for stability against proteolysis: 0-2 h
Procedure: The evaluation of the stability of CP20 and Ac-LP20 towards proteolysis was tested at a peptide concentration of 200 µM using pronase (commercially available mixture of proteases isolated from the extracellular fluid of Streptomyces griseus, 2.5 µg/mg). Another peptide was added to this analysis, namely LP20 (without N-terminal acetylation), as it is easier to synthesize and to also assess the influence of N-terminal acetylation on the stability of LP20. Each peptide was tested in the presence of the protease (5 µg/mL) at 37°C in a buffer solution (50 mM Tris, 10 mM CaCl2, 150 mM NaCl, 0.05 % (w/v) Brij 35, pH 7.5) and its stability monitored by liquid chromatography coupled to mass spectrometry (LC-MS) at different time intervals (t=0 min, 10 min, 30 min, 1 h, 2 h). To stop enzyme activity, a small amount of the solution (60 µL) was transferred to an HPLC vial containing 6 µL of a 10% TFA solution at these different time points.

Row | Compound | PPI (%) micelio (P. infestans) [%] | PPI (%) mycelium (P. infestans) [%] | also measured
1 | CSCC[C@H](NC(=O)[C@@H](Cc1c[nH]c2ccccc12)NC(=O)[C@@H](CCCNC(=N)N)NC(=O)CCN)C(=O)N[C@@H](CC(C)C)C(=O)N[C@H](C(=O)N[C@H](Cc1ccc(O)cc1)C(=O)N[C@@H](CCCNC(=N)N)C(=O)N[C@@H](CCCNC(=N)N)C(N)=O)C(C)C [LR206, H2N-βA-(D)R-(D)W-MLV-(D)Y-RR-CONH2] (H-[βAla][dR][dW]MLV[dY]RR-NH2) | – | – | PPI (%) ± Std. Dev. (P. infestans): 81.52 ± 5.47 (b) %
2 | CC(=O)NCCC(=O)NCC(=O)N[C@@H](CCCNC(=N)N)C(=O)N[C@@H](CC(C)C)C(=O)N[C@@H](CCCNC(=N)N)C(=O)N[C@@H](Cc1c[nH]c2ccccc12)C(=O)N[C@@H](C)C(=O)N[C@@H](CCCNC(=N)N)C(=O)N[C@H](C(N)=O)C(C)C [Ac-LP32-Ala7, Ac-βA-GRLRWARV-CONH2] (Ac-[βAla]GRLRWARV-NH2) | 59.29 ± 7.05 | – | –
3 | CSCC[C@H](NC(=O)[C@H](Cc1c[nH]c2ccccc12)NC(=O)[C@H](C)NC(=O)CCNC(C)=O)C(=O)N[C@@H](CC(C)C)C(=O)N[C@H](C(=O)N[C@@H](Cc1ccc(O)cc1)C(=O)N[C@@H](CCCNC(=N)N)C(=O)N[C@@H](CCCNC(=N)N)C(N)=O)C(C)C [Ac-LP20-Ala2, Ac-βA-AWMLVYRR-CONH2] (Ac-[βAla]AWMLVYRR-NH2) | – | 38.75 ± 7.72 | –
4 | CC(=O)NCCC(=O)NCC(=O)N[C@@H](CCCNC(=N)N)C(=O)N[C@@H](CC(C)C)C(=O)N[C@@H](CCCNC(=N)N)C(=O)N[C@@H](Cc1c[nH]c2ccccc12)C(=O)N[C@@H](CC(C)C)C(=O)N[C@@H](CCCNC(=N)N)C(=O)N[C@@H](C)C(N)=O [Ac-LP32-Ala9, Ac-βA-GRLRWLRA-CONH2] (Ac-[βAla]GRLRWLRA-NH2) | 19.85 ± 2.92 | – | –
5 | H2N-βA-RWM-hL-VYRR-CONH2 (H-[βAla]RWMXVYRR-NH2; not fully specified (residue 5); printed as H2N-βA-RWM-hL-VYRR-CONH2) [LR193, hydrazino-Leu analogue] | – | – | PPI (%) ± Std. Dev. (P. infestans): 79.35 ± 5.47 (b) %
6 | CSCC[C@H](NC(=O)[C@H](Cc1c[nH]c2ccccc12)NC(=O)[C@H](CCCNC(=N)N)NC(=O)CCNC(C)=O)C(=O)N[C@@H](CC(C)C)C(=O)N[C@H](C(=O)N[C@@H](Cc1ccc(O)cc1)C(=O)N[C@@H](C)C(=O)N[C@@H](CCCNC(=N)N)C(N)=O)C(C)C [Ac-LP20-Ala8, Ac-βA-RWMLVYAR-CONH2] (Ac-[βAla]RWMLVYAR-NH2) | – | 10.57 ± 9.49 | –
7 | Ac-[βAla]GRLRWLRV-NH2 | – | – | cleaved bond (pronase [1]): Trp-Leu7, 10 minutes later; also recorded: Leu4-Arg5, 10 min; also recorded: Arg5-Trp, 10 min; also recorded: Leu7-Arg8, 10 min; also recorded: Arg8-Val, 10 min
8 | CC(=O)NCCC(=O)NCC(=O)N[C@@H](CCCNC(=N)N)C(=O)N[C@@H](C)C(=O)N[C@@H](CCCNC(=N)N)C(=O)N[C@@H](Cc1c[nH]c2ccccc12)C(=O)N[C@@H](CC(C)C)C(=O)N[C@@H](CCCNC(=N)N)C(=O)N[C@H](C(N)=O)C(C)C [Ac-LP32-Ala4, Ac-βA-GRARWLRV-CONH2] (Ac-[βAla]GRARWLRV-NH2) | 56.49 ± 10.10 | – | –
9 | CSCC[C@H](NC(=O)[C@H](Cc1c[nH]c2ccccc12)NC(=O)[C@H](CCCNC(=N)N)NC(=O)CCNC(C)=O)C(=O)N[C@@H](CC(C)C)C(=O)N[C@H](C(=O)N[C@@H](Cc1ccc(O)cc1)C(=O)N[C@@H](CCCNC(=N)N)C(=O)N[C@@H](C)C(N)=O)C(C)C [Ac-LP20-Ala9, Ac-βA-RWMLVYRA-CONH2] (Ac-[βAla]RWMLVYRA-NH2) | – | 10.57 ± 9.49 | –
10 | CSCC[C@H](NC(=O)[C@H](Cc1c[nH]c2ccccc12)NC(=O)[C@H](CCCNC(=N)N)NC(=O)CCNC(C)=O)C(=O)N[C@@H](CC(C)C)C(=O)N[C@@H](C)C(=O)N[C@@H](Cc1ccc(O)cc1)C(=O)N[C@@H](CCCNC(=N)N)C(=O)N[C@@H](CCCNC(=N)N)C(N)=O [Ac-LP20-Ala6, Ac-βA-RWMLAYRR-CONH2] (Ac-[βAla]RWMLAYRR-NH2) | – | 62.2 ± 7.54 | –
11 | [βAla]RWMLVYRR [LP20] | – | – | cleaved bond (pronase [1]): Met4-Leu, first_seen, t0; also recorded: Arg2-Trp3, 10 min; also recorded: Trp3-Met4, 10 min
12 | CC(C)C[C@H](NC(=O)[C@H](CCSC(F)(F)F)NC(=O)[C@H](Cc1c[nH]c2ccccc12)NC(=O)[C@H](CCCNC(=N)N)NC(=O)CCN)C(=O)N[C@H](C(=O)N[C@@H](Cc1ccc(O)cc1)C(=O)N[C@@H](CCCNC(=N)N)C(=O)N[C@@H](CCCNC(=N)N)C(N)=O)C(C)C [LR131, H2N-βA-RW-MCF3-LVYRR-CONH2] (H-[βAla]RW[hCys](CF3)LVYRR-NH2) | – | – | PPI (%) ± Std. Dev. (P. infestans): 85.32 ± 5.19 (b) %
13 | CC(=O)NCCC(=O)NCC(=O)N[C@@H](CCCNC(=N)N)C(=O)N[C@@H](CC(C)C)C(=O)N[C@@H](CCCNC(=N)N)C(=O)N[C@@H](C)C(=O)N[C@@H](CC(C)C)C(=O)N[C@@H](CCCNC(=N)N)C(=O)N[C@H](C(N)=O)C(C)C [Ac-LP32-Ala6, Ac-βA-GRLRALRV-CONH2] (Ac-[βAla]GRLRALRV-NH2) | 54.20 ± 4.31 | – | –
14 | CSCC[C@H](NC(=O)[C@H](Cc1c[nH]c2ccccc12)NC(=O)[C@H](CCCNC(=N)N)NC(=O)CCNC(C)=O)C(=O)N[C@@H](CC(C)C)C(=O)N[C@H](C(=O)N[C@@H](C)C(=O)N[C@@H](CCCNC(=N)N)C(=O)N[C@@H](CCCNC(=N)N)C(N)=O)C(C)C [Ac-LP20-Ala7, Ac-βA-RWMLVARR-CONH2] (Ac-[βAla]RWMLVARR-NH2) | – | 17.48 ± 12.34 | –
15 | CC(=O)NCCC(=O)NCC(=O)N[C@@H](C)C(=O)N[C@@H](CC(C)C)C(=O)N[C@@H](CCCNC(=N)N)C(=O)N[C@@H](Cc1c[nH]c2ccccc12)C(=O)N[C@@H](CC(C)C)C(=O)N[C@@H](CCCNC(=N)N)C(=O)N[C@H](C(N)=O)C(C)C [Ac-LP32-Ala3, Ac-βA-GALRWLRV-CONH2] (Ac-[βAla]GALRWLRV-NH2) | 58.78 ± 3.94 | – | –
16 | CC(=O)NCCC(=O)NCC(=O)N[C@@H](CCCNC(=N)N)C(=O)N[C@@H](CC(C)C)C(=O)N[C@@H](CCCNC(=N)N)C(=O)N[C@@H](Cc1c[nH]c2ccccc12)C(=O)N[C@@H](CC(C)C)C(=O)N[C@@H](C)C(=O)N[C@H](C(N)=O)C(C)C [Ac-LP32-Ala8, Ac-βA-GRLRWLAV-CONH2] (Ac-[βAla]GRLRWLAV-NH2) | 17.56 ± 7.48 | – | –
17 | CSCC[C@H](NC(=O)[C@H](Cc1c[nH]c2ccccc12)NC(=O)[C@H](CCCNC(=N)N)NC(=O)CCN)C(=O)N[C@@H](CC(C)C)C(=O)N[C@H](C(=O)N[C@@H](Cc1ccc(O)cc1)C(=O)N[C@@H](CCCNC(=N)N)C(=O)N[C@@H](CCCNC(=N)N)C(N)=O)C(C)C [LP20] (H-[βAla]RWMLVYRR-NH2) | – | – | PPI (P. infestans): 72.78%; time of total proteolysis of the peptide (pronase [2]): 10 min; stability against proteolysis (pronase [2]): Low stability
18 | CSCC[C@H](NC(=O)[C@@H](Cc1c[nH]c2ccccc12)NC(=O)[C@@H](CCCNC(=N)N)NC(=O)CCN)C(=O)N[C@@H](CC(C)C)C(=O)N[C@H](C(=O)N[C@H](Cc1ccc(O)cc1)C(=O)N[C@@H](CCCNC(=N)N)C(=O)N[C@H](CCCNC(=N)N)C(N)=O)C(C)C [LR202, H2N-βA-(D)R-(D)W-MLV-(D)Y-R-(D)R-CONH2] (H-[βAla][dR][dW]MLV[dY]R[dR]-NH2) | – | – | PPI (%) ± Std. Dev. (P. infestans): 78.26 ± 0 (b) %
19 | CC(=O)NCCC(=O)NCC(=O)N[C@@H](CCCNC(=N)N)C(=O)N[C@@H](CC(C)C)C(=O)N[C@@H](C)C(=O)N[C@@H](Cc1c[nH]c2ccccc12)C(=O)N[C@@H](CC(C)C)C(=O)N[C@@H](CCCNC(=N)N)C(=O)N[C@H](C(N)=O)C(C)C [Ac-LP32-Ala5, Ac-βA-GRLAWLRV-CONH2] (Ac-[βAla]GRLAWLRV-NH2) | 40.46 ± 1.76 | – | –
20 | CSCC[C@H](NC(=O)[C@H](Cc1c[nH]c2ccccc12)NC(=O)[C@H](CCCNC(=N)N)NC(=O)CCNC(C)=O)C(=O)N[C@@H](C)C(=O)N[C@H](C(=O)N[C@@H](Cc1ccc(O)cc1)C(=O)N[C@@H](CCCNC(=N)N)C(=O)N[C@@H](CCCNC(=N)N)C(N)=O)C(C)C [Ac-LP20-Ala5, Ac-βA-RWMAVYRR-CONH2] (Ac-[βAla]RWMAVYRR-NH2) | – | 70.73 ± 0 | –
21 | CC(C)C[C@H](NC(=O)[C@H](CCCNC(=N)N)NC(=O)CNC(=O)CCN)C(=O)N[C@@H](CCCNC(=N)N)C(=O)N[C@@H](Cc1c[nH]c2ccccc12)C(=O)N[C@@H](CC(C)C)C(=O)N[C@@H](CCCNC(=N)N)C(=O)N[C@H](C(N)=O)C(C)C [LP32] (H-[βAla]GRLRWLRV-NH2) | – | – | PPI (P. infestans): 76.97%; time of total proteolysis of the peptide (pronase [2]): 10 min; stability against proteolysis (pronase [2]): low stability
22 | CC(=O)NCCC(=O)N[C@@H](C)C(=O)N[C@@H](CCCNC(=N)N)C(=O)N[C@@H](CC(C)C)C(=O)N[C@@H](CCCNC(=N)N)C(=O)N[C@@H](Cc1c[nH]c2ccccc12)C(=O)N[C@@H](CC(C)C)C(=O)N[C@@H](CCCNC(=N)N)C(=O)N[C@H](C(N)=O)C(C)C [Ac-LP32-Ala2, Ac-βA-ARLRWLRV-CONH2] (Ac-[βAla]ARLRWLRV-NH2) | 74.81 ± 3.63 | – | –
23 | CSCC[C@H](NC(=O)[C@H](C)NC(=O)[C@H](CCCNC(=N)N)NC(=O)CCNC(C)=O)C(=O)N[C@@H](CC(C)C)C(=O)N[C@H](C(=O)N[C@@H](Cc1ccc(O)cc1)C(=O)N[C@@H](CCCNC(=N)N)C(=O)N[C@@H](CCCNC(=N)N)C(N)=O)C(C)C [Ac-LP20-Ala3, Ac-βA-RAMLVYRR-CONH2] (Ac-[βAla]RAMLVYRR-NH2) | – | 100 ± 0 | –
